Experimental data from patent US20120184542A1, “PYRIDO PYRIMIDINES” (priority 2011, published 2012).
Where two headings read alike, the source gives them in different places.

Tests used:
[1] = system: SW620 human colon cancer cells; assay: SW620 Cell Viability Assay; assay type: cell-based; details: Homo sapiens, SW-620, 96 h, read-out: Cellular EC50 (μM) SW620
Method: Some cells (S—) were allowed to attach for 24 hrs, serum starved for 48 hrs, and then followed with drug treatments Test Compound Solutions were Prepared in Regular Corresponding Media Supplemented with Serum 2. […] Viability Assay: This assay was performed as follows: • Transfer 50 μL of test compound solution per well from the test compound plate onto the cell plate prepared in Step #1. • Mix the plate with treated cells by pipetting up and down three times with 200 μL multi-channel pipette. • Incubate the cells in 5% CO2 incubator @ 37° C. for 4 days. • Run the CellTiter-Glo™ Luminescent Cell Viability Assay.

Human DYRK1B = target: T1, Human DYRK1B (Homo sapiens, UniProt Q9Y463); assay: DYRK1B Kinase TR-FRET (IMAP-Tb) Assay; assay type: biochemical; details: for IC50: TR-FRET (IMAP-Tb), ATP 70 μM, 37° C. 60 minutes
T1 construct: purchased Invitrogen PR8350B (former PV4649)
T1 sequence (Q9Y463 whole entry): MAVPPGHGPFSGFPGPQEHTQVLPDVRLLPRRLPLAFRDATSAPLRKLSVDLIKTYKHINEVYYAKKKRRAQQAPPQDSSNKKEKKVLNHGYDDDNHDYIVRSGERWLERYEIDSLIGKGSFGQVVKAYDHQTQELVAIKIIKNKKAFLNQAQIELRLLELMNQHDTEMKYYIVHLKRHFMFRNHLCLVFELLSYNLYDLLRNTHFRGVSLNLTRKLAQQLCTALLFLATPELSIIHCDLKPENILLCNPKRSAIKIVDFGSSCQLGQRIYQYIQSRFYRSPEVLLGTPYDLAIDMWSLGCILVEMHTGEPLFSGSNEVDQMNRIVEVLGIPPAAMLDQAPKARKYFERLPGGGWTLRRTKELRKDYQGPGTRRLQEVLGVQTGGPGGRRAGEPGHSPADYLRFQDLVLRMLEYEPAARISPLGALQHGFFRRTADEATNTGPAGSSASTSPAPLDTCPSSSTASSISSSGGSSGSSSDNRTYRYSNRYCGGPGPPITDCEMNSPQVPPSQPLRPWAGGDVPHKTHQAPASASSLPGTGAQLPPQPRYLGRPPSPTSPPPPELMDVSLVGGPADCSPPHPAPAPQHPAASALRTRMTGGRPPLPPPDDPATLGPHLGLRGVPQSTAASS

Human DYRK1A = target: T2, Human DYRK1A (Homo sapiens, UniProt Q13627); assay: DYRK1A Kinase TR-FRET (IMAP-Tb) Assay; assay type: biochemical; details: TR-FRET (IMAP-Tb); ATP 70 μM; 37° C. 60 minutes; read-out: Enzyme IC50 (μM) DYRK1A
T2 construct: purchased Invitrogen PV3997
Outline: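 Recombinant human DYRK1A phosphorylated fluorescent substrate peptide (1.0 μM) with ATP in 10 mM HEPES pH 7.0, 50 mM NaCl, 5 mM MgCl2, 1 mM DTT, 1 mM NaVO4, 0.02% BSA for 60 min at 37 °C. Phosphopeptide detected by IMAP terbium TR-FRET; IC50 reported.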

[2] = read-out: Enzyme IC50 (μM) DYRK1B

Row | Structure (SMILES) | EC50 [1] [µM] | IC50 (Human DYRK1B; Enzyme IC50 (μM) DYRK1B) [µM] | IC50 (Human DYRK1B; [2]) [µM] | IC50 (Human DYRK1A) [µM] | inhibition at 10 µM (Human DYRK1B; read-out: % inhibition of DYRK1B at 10 μM test compound concentration) [%]
1 | COC(=O)c1ccc(C)c(NC(=O)c2cc3cnc(OC)nc3[nH]c2=O)c1 [Example 19, 3-[(2-Methoxy-7-oxo-7,8-dihydro-pyrido[2,3-d]pyrimidine-6-carbonyl)-amino]-4-methyl-benzoic acid methyl ester] | 92.5 | 0.252 |  |  | 
2 | COC(=O)c1ccc(Cl)c(NC(=O)c2cc3cnc(OC)nc3[nH]c2=O)c1 [Example 21, 4-Chloro-3-[(2-methoxy-7-oxo-7,8-dihydro-pyrido[2,3-d]pyrimidine-6-carbonyl)-amino]-benzoic acid methyl ester] | 3.34 | 0.135 |  |  | 
3 | COc1ncc2cc(C(=O)Nc3cc(C(=O)NCc4ccccc4)ccc3Cl)c(=O)[nH]c2n1 [Example 31, 2-Methoxy-7-oxo-7,8-dihydro-pyrido[2,3-d]pyrimidine-6-carboxylic acid (5-benzylcarbamoyl-2-chloro-phenyl)-amide] | > 100 | 0.048 |  |  | 
4 | COc1ncc2cc(C(=O)Nc3cc(C(=O)NCc4cccs4)ccc3Cl)c(=O)[nH]c2n1 [Example 57, 2-Methoxy-7-oxo-7,8-dihydro-pyrido[2,3-d]pyrimidine-6-carboxylic acid {2-chloro-5-[(thiophen-2-ylmethyl)-carbamoyl]-phenyl}-amide] | 2.41 | 0.096 |  |  | 
5 | COc1ncc2cc(C(=O)Nc3cc(C(=O)NCc4ccsc4)ccc3Cl)c(=O)[nH]c2n1 [Example 58, 2-Methoxy-7-oxo-7,8-dihydro-pyrido[2,3-d]pyrimidine-6-carboxylic acid {2-chloro-5-[(thiophen-3-ylmethyl)-carbamoyl]-phenyl}-amide] | 1.73 | 0.04 |  |  | 
6 | COc1ncc2cc(C(=O)Nc3cc(C(=O)NC(CN)c4ccccc4)ccc3Cl)c(=O)[nH]c2n1 (stereo not shown) [Example 72, 2-Methoxy-7-oxo-7,8-dihydro-pyrido[2,3-d]pyrimidine-6-carboxylic acid [5-(2-amino-1-phenyl-ethylcarbamoyl)-2-chloro-phenyl]-amide] | 0.828 |  | 0.00935 |  | 
7 | COc1ncc2cc(C(=O)Nc3cc(C(=O)NC(CCN)c4ccccc4)ccc3Cl)c(=O)[nH]c2n1 (stereo not shown) [Example 76, 2-Methoxy-7-oxo-7,8-dihydro-pyrido[2,3-d]pyrimidine-6-carboxylic acid [5-(3-amino-1-phenyl-propylcarbamoyl)-2-chloro-phenyl]-amide] | 0.657 |  | 0.0128 |  | 
8 | CNC(=O)c1ccc(Cl)c(NC(=O)c2cc3cnc(OC)nc3[nH]c2=O)c1 [Example 78, 2-Methoxy-7-oxo-7,8-dihydro-pyrido[2,3-d]pyrimidine-6-carboxylic acid (2-chloro-5-methylcarbamoyl-phenyl)-amide] | 2.52 | 0.248 |  |  | 
9 | CN(C)c1ncc2cc(C(=O)Nc3cc(C(=O)NCc4cccc(Cl)c4)ccc3Cl)c(=O)[nH]c2n1 [Example 155, N-(2-Chloro-5-(3-chlorobenzylcarbamoyl)phenyl)-2-(dimethylamino)-7-oxo-7,8-dihydropyrido[2,3-d]pyrimidine-6-carboxamide] |  |  | 0.0923 | 0.0485 | 
10 | C[C@@H](NC(=O)c1ccc(Cl)c(NC(=O)c2cc3cnc(N4CCOCC4)nc3[nH]c2=O)c1)c1ccccc1 [Example 156, 2-Morpholin-4-yl-7-oxo-7,8-dihydro-pyrido[2,3-d]pyrimidine-6-carboxylic acid [2-chloro-5-((R)-1-phenyl-ethylcarbamoyl)-phenyl]-amide] |  |  | 0.586 | 0.189 | 
11 | C[C@H](NC(=O)c1ccc(Cl)c(NC(=O)c2cc3cnc(N4CCOCC4)nc3[nH]c2=O)c1)c1ccccc1 [Example 157, 2-Morpholin-4-yl-7-oxo-7,8-dihydro-pyrido[2,3-d]pyrimidine-6-carboxylic acid [2-chloro-5-((S)-1-phenyl-ethylcarbamoyl)-phenyl]-amide] |  |  | > 10 | > 10 | 
12 | COc1ncc2cc(C(=O)Nc3cc(C(=O)N[C@@H](CCO)c4ccccc4)ccc3Cl)c(=O)[nH]c2n1 [Example 159, (S)—N-(2-Chloro-5-(3-hydroxy-1-phenylpropylcarbamoyl)phenyl)-2-methoxy-7-oxo-7,8-dihydropyrido[2,3-d]pyrimidine-6-carboxamide] |  |  |  | 3.88 | 22
13 | C[C@H](NC(=O)c1ccc(Cl)c(NC(=O)c2cc3cnc(N4CCN(C)CC4)nc3[nH]c2=O)c1)c1ccccc1 [Example 173, 2-(4-Methyl-piperazin-1-yl)-7-oxo-7,8-dihydro-pyrido[2,3-d]pyrimidine-6-carboxylic acid [2-chloro-5-((S)-1-phenyl-ethylcarbamoyl)-phenyl]-amide] |  |  | > 10 | > 10 | 
14 | CN1CCN(c2ncc3cc(C(=O)Nc4cc(C(=O)NCc5cccc(F)c5)ccc4Cl)c(=O)[nH]c3n2)CC1 [Example 177, 2-(4-Methyl-piperazin-1-yl)-7-oxo-7,8-dihydro-pyrido[2,3-d]pyrimidine-6-carboxylic acid [2-chloro-5-(3-fluoro-benzylcarbamoyl)-phenyl]amide] |  |  | 0.176 | 0.0715 | 
15 | CN1CCN(c2ncc3cc(C(=O)Nc4cc(C(=O)NCc5cc(F)ccc5F)ccc4Cl)c(=O)[nH]c3n2)CC1 [Example 178, 2-(4-Methyl-piperazin-1-yl)-7-oxo-7,8-dihydro-pyrido[2,3-d]pyrimidine-6-carboxylic acid [2-chloro-5-(2,5-difluoro-benzylcarbamoyl)-phenyl]amide] |  |  | 0.356 | 0.0748 | 
16 | CN1CCN(c2ncc3cc(C(=O)Nc4cc(C(=O)N[C@H](CN)Cc5cccc(F)c5)ccc4Cl)c(=O)[nH]c3n2)CC1 [Example 187, 2-(4-Methyl-piperazin-1-yl)-7-oxo-7,8-dihydro-pyrido[2,3-d]pyrimidine-6-carboxylic acid {5-[(S)-1-aminomethyl-2-(3-fluoro-phenyl)-ethylcarbamoyl]-2-chloro-phenyl}-amide] |  |  | 0.202 | 0.13 | 
17 | COc1ncc2cc(C(=O)Nc3cc(C(=O)NC(CN)C4CCCCC4)ccc3Cl)c(=O)[nH]c2n1 (stereo not shown) [Example 192, N-(5-(2-Amino-1-cyclohexylethylcarbamoyl)-2-chlorophenyl)-2-methoxy-7-oxo-7,8-dihydropyrido[2,3-d]pyrimidine-6-carboxamide] |  |  | 0.047 | 0.036 | 
18 | COc1ncc2cc(C(=O)Nc3cc(C(=O)NC(c4ccccc4)C(F)(F)CN)ccc3Cl)c(=O)[nH]c2n1 (stereo not shown) [Example 196, N-(5-(3-amino-2,2-difluoro-1-phenylpropylcarbamoyl)-2-chlorophenyl)-2-methoxy-7-oxo-7,8-dihydropyrido[2,3-d]pyrimidine-6-carboxamide] |  |  | 0.339 | 0.175 | 
19 | COc1ncc2cc(C(=O)Nc3cc(C(=O)NC(CCN)C4CCCC4)ccc3Cl)c(=O)[nH]c2n1 (stereo not shown) [Example 198, 2-Methoxy-7-oxo-7,8-dihydro-pyrido[2,3-d]pyrimidine-6-carboxylic acid [5-(3-amino-1-cyclopentyl-propylcarbamoyl)-2-chloro-phenyl]-amide] |  |  | 0.36 | 0.47 | 
20 | COc1ncc2cc(C(=O)Nc3cc(C(=O)NC(CN)C4CCCC4)ccc3Cl)c(=O)[nH]c2n1 (stereo not shown) [Example 200, 2-Methoxy-7-oxo-7,8-dihydro-pyrido[2,3-d]pyrimidine-6-carboxylic acid [5-(2-amino-1-cyclopentyl-ethylcarbamoyl)-2-chloro-phenyl]-amide] |  |  | 0.47 | 0.54 | 
